According to patent publication US20240018158A1, “BRM TARGETING COMPOUNDS AND ASSOCIATED METHODS OF USE” (Prelude Therapeutics Incorporated, priority 2020, published 2024):

Legend:
Format in all cases: cell-based
[1] = molecular target: T1, SMARCA2 (Homo sapiens (Human), UniProt P51531); test: SMARCA2 HiBiT degradation assay in HeLa cells; conditions: 18 hours; for DC50: read-out: DC50 (SM2-HeLa) SMARCA2 degradation potency; for Dmax: read-out: Dmax % (SM2-HeLa) maximum SMARCA2 degradation within the concentrations tested
T1 sequence (P51531 whole entry): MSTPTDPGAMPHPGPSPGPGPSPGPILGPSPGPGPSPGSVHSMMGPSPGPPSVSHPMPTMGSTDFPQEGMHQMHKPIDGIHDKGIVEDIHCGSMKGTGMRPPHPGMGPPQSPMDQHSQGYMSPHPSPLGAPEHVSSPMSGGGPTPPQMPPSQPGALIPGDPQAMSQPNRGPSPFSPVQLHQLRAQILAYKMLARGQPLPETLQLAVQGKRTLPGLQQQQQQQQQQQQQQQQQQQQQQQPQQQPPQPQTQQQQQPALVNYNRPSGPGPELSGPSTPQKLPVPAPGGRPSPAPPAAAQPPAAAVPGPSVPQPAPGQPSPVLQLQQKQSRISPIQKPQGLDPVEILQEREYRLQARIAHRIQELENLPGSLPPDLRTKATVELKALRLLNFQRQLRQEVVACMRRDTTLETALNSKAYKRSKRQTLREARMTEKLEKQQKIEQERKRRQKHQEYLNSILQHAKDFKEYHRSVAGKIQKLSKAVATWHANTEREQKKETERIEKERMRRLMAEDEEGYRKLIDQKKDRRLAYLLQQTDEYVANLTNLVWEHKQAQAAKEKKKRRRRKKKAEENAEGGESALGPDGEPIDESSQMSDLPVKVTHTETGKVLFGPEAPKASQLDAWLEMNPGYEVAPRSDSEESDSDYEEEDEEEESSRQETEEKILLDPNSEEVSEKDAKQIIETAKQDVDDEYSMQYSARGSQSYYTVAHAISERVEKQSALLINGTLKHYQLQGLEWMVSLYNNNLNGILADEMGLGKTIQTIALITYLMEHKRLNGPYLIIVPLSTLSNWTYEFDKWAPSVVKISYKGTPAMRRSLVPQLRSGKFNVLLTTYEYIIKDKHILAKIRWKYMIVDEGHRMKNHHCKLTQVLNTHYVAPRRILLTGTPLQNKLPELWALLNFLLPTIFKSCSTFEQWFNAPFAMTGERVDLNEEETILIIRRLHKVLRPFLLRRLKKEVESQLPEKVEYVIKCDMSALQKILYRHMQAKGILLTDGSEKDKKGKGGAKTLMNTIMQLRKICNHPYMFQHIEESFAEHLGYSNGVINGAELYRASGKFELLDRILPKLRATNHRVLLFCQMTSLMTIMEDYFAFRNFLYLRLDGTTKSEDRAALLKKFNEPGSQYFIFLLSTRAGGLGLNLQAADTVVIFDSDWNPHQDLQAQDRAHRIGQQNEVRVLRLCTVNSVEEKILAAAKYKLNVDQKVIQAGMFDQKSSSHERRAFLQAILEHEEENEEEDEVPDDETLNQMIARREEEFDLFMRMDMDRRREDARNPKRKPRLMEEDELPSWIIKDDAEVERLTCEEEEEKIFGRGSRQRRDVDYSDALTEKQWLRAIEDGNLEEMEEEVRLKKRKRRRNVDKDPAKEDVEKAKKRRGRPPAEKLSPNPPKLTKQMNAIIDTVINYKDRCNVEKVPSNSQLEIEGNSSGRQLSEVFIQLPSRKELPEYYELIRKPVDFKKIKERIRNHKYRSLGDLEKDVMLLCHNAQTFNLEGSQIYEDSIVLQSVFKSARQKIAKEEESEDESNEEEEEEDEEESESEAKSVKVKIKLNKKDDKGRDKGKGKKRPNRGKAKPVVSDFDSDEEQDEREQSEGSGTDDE
Description: (§1) HiBiT peptide knock-in of SMARCA2 in LgBiT expressing HEK293T cells was performed by CRISPR-mediated tagging system as described Promega. The homozygous HiBiT knock-in on c-terminus SMARCA2 was confirmed by sanger sequence. SMARCA2-HiBiT knock-in Hela monoclonal cell (CS302366) and SMARCA4-HiBiT knock-in Hela monoclonal cell (CS3023226) were purchased from Promega. The heterozygous HiBiT-knock-in was confirmed by sanger sequence in both SMARCA2-HiBiT and SMARCA4-HiBiT monoclonal cells.
(§2) Dispense 10 μL aliquot of prepared Hela-SMARCA2-HiBiT or Hela-SMARCA4-HiBiT cells (1:1 ratio of cells:Trypan Blue (#1450013, Bio-Rad)) onto cell counting slide (#145-0011, Bio-Rad) and obtain cell density and cell viability using cell counter (TC20, Bio-Rad). Remove appropriate volume of resuspended cells from culture flask to accommodate 2500 cells/well @ 20 μL/well. Transfer Hela-HiBiT cells to 50 ml conical (#430290, Corning). Spin down at 1000 rpm for 5 min using tabletop centrifuge (SPINCHRON 15, Beckman). Discard supernatant and resuspend cell pellet in modified EMEM (#30-2003, ATCC) cell culture media containing 10% FBS (F2422-500ML, Sigma), and 1×Penicillin/Streptomycin (200 g/1) (30-002-CI, Corning) to a cell density of 125,000 cells/ml. Dispense 20 μL of resuspended Hela-HiBit cells per well in 384-well TC treated plate (#12-565-343, Thermo Scientific) using standard cassette (#50950372, Thermo Scientific) on Multidrop Combi (#5840310, Thermo Scientific) inside laminar flow cabinet. Dispense test compounds onto plates using digital liquid dispenser (D300E, Tecan). Incubate plates in humidified tissue culture incubator @37° C. for 18 hours. Add 20 ul of prepared Nano-Glo® HiBiT Lytic detection buffer (N3050, Promega) to each well of 384-well plate using small tube cassette (#24073295, Thermo Scientific) on Multidrop Combi, incubate @ RT for 30-60 min. Read plates on microplate reader (Envision 2105, PerkinElmer) using 384 well Ultra-Sensitive luminescence mode. Raw data files and compound information reports are swept into centralized data lake and deconvoluted using automated scripts designed by TetraScience, Inc. Data analysis, curve-fitting and reporting done in Dotmatics Informatics Suite using Screening Ultra module.

[2] = molecular target: SMARCA4 (Homo sapiens (Human), UniProt P51532); test: SMARCA4 HiBiT degradation assay in HeLa cells; conditions: 18 hours; for DC50: read-out: DC50 (SM4-HeLa) SMARCA4 degradation potency; for Dmax: HeLa, read-out: Dmax % (SM4-HeLa) maximum SMARCA4 degradation within the concentrations tested
Sequence of SMARCA4 (P51532 whole entry): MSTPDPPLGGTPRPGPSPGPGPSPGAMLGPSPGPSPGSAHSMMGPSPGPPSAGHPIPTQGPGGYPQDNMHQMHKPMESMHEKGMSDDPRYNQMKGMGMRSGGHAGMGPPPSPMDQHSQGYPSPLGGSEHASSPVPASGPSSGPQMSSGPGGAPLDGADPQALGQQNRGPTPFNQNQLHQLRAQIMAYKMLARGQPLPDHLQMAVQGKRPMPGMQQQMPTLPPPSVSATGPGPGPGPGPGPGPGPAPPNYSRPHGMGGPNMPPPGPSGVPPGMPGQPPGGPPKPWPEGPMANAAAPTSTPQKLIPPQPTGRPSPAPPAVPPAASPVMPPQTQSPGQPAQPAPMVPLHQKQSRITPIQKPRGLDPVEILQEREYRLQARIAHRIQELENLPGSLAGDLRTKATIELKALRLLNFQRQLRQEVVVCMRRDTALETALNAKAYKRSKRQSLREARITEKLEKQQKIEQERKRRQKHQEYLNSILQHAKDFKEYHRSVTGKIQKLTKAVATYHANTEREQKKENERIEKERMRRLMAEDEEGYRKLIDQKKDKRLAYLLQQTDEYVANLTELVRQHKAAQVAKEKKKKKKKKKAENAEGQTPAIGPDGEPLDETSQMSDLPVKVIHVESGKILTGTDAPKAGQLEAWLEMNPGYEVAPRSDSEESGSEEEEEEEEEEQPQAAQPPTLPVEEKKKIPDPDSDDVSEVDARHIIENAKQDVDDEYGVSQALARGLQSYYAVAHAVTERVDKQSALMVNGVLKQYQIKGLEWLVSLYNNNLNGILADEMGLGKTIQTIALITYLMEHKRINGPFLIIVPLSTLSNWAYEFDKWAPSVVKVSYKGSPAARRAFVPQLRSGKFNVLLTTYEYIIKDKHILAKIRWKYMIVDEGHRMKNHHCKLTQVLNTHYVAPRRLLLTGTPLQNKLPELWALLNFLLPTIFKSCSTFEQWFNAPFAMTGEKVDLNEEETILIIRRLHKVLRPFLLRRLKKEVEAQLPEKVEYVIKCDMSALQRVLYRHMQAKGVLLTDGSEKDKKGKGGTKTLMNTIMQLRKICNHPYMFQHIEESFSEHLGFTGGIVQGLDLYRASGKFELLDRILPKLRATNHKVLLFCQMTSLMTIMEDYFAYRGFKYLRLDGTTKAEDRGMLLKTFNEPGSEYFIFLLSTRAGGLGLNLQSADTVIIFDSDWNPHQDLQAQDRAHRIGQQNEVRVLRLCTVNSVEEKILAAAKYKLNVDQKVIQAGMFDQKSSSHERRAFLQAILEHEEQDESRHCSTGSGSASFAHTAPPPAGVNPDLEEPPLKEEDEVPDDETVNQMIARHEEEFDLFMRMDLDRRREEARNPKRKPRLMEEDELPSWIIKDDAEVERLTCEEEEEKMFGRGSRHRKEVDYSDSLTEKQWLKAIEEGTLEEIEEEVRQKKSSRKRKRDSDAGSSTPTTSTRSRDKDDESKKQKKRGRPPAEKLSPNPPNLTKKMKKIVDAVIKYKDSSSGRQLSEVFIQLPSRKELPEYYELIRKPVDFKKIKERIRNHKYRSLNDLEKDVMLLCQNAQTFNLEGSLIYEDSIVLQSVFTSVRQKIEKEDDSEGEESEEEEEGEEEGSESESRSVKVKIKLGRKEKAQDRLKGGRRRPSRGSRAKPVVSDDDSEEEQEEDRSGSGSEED
Description: as §1, §2

[3] = molecular target: T1, SMARCA2; test: SMARCA2 HiBiT degradation assay in HEK293T cells; conditions: 293T HiBiT assay, 24 h; for DC50: read-out: DC50 (SM2-293T) SMARCA2 degradation potency; for Dmax: HEK-293T, read-out: Dmax % (SM2-293T) maximum SMARCA2 degradation within the concentrations tested
Method in brief: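 Luminescence from endogenous C-terminally HiBiT-tagged SMARCA2 (homozygous knock-in, LgBiT HEK293T) measured after 24 h compound exposure, 11 concentrations in 3-fold steps. DMSO and 1 μM PRT1001728 set 0% and 100%; DC50 fitted by four-parameter logistic model.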

Row | SMILES | DC50 [1] | Dmax [1] | DC50 [2] | Dmax [2] | DC50 [3] | Dmax [3]
1 | Cc1ncsc1-c1ccc([C@H](C)NC(=O)[C@@H]2C[C@@H](O)CN2C(=O)[C@@H](c2cc(OCC(=O)N3CCC(N4CCN5c6cc(-c7ccccc7O)nnc6NC[C@H]5C4)C(C)C3)no2)C(C)C)cc1 (single isomer, unassigned) [Example 30] | < 100 nM | > 75% | < 100 nM | > 75% |  | 
2 | Cc1ncsc1-c1ccc([C@H](C)NC(=O)[C@@H]2C[C@@H](O)CN2C(=O)[C@@H](c2cc(OCCN3CCCC(N4CCN5c6cc(-c7ccccc7O)nnc6NC[C@H]5C4)C3)no2)C(C)C)cc1 (single isomer, unassigned) [Example 41] | < 100 nM | > 75% | < 100 nM | > 75% |  | 
3 | Cc1ncsc1-c1ccc([C@H](C)NC(=O)[C@@H]2C[C@@H](O)CN2C(=O)[C@@H](c2cc(OCCN3CCCC(N4CCN5c6cc(-c7ccccc7O)nnc6NC[C@H]5C4)C3)no2)C(C)C)cc1 (single isomer, unassigned) [Example 42] | < 100 nM |  | < 100 nM |  |  | 
4 | Cc1ncsc1-c1ccc([C@H](C)NC(=O)[C@@H]2C[C@@H](O)CN2C(=O)[C@@H](c2cc(OCCN3CCC(N4CCN5c6cc(-c7ccccc7O)nnc6NC[C@@H]5C4)CC3)no2)C(C)C)cc1 [Example 77, (2S,4R)-4-hydroxy-1-((R)-2-(3-(2-(4-((R)-2-(2-hydroxyphenyl)-5,6,6a,7,9,10-hexahydro-8H-pyrazino[1′,2′:4,5]pyrazino[2,3-c]pyridazin-8-yl)piperidin-1-yl)ethoxy)isoxazol-5-yl)-3-methylbutanoyl)-N-((S)-1-(4-(4-methylthiazol-5-yl)phenyl)ethyl)pyrrolidine-2-carboxamide] |  |  |  |  | < 100 nM | > 75%
5 | Cc1ncsc1-c1ccc([C@H](C)NC(=O)[C@@H]2C[C@@H](O)CN2C(=O)[C@@H](c2cc(OCCN3C4CCC3CC(CN3CCN5c6cc(-c7ccccc7O)nnc6NCC5C3)C4)no2)C(C)C)cc1 (stereo partly drawn) [Example 78, (2S,4R)-4-hydroxy-1-((2R)-2-(3-(2-(3-((2-(2-hydroxyphenyl)-5,6,6a,7,9,10-hexahydro-8H-pyrazino[1′,2′:4,5]pyrazino[2,3-c]pyridazin-8-yl)methyl)-8-azabicyclo[3.2.1]octan-8-yl)ethoxy)isoxazol-5-yl)-3-methylbutanoyl)-N-((S)-1-(4-(4-methylthiazol-5-yl)phenyl)ethyl)pyrrolidine-2-carboxamide] |  |  |  |  | < 100 nM | > 75%
6 | Cc1ncsc1-c1ccc([C@H](C)NC(=O)[C@@H]2C[C@@H](O)CN2C(=O)[C@@H](NC(=O)CN2CCC(N3CCN4c5cc(-c6ccccc6O)nnc5NC[C@@H]4C3)CC2)C(C)(C)C)cc1 [Example 79, (2S,4R)-4-hydroxy-1-((S)-2-(2-(4-((R)-2-(2-hydroxyphenyl)-5,6,6a,7,9,10-hexahydro-8H-pyrazino[1′,2′:4,5]pyrazino[2,3-c]pyridazin-8-yl)piperidin-1-yl)acetamido)-3,3-dimethylbutanoyl)-N-((S)-1-(4-(4-methylthiazol-5-yl)phenyl)ethyl)pyrrolidine-2-carboxamide] |  |  |  |  | < 100 nM | > 75%
7 | Cc1ncsc1-c1ccc([C@H](C)NC(=O)[C@@H]2C[C@@H](O)CN2C(=O)[C@@H](NC(=O)OCCN2CCC(N3CCN4c5cc(-c6ccccc6O)nnc5NC[C@H]4C3)CC2)C(C)(C)C)cc1 [Example 80, 2-(4-((S)-2-(2-hydroxyphenyl)-5,6,6a,7,9,10-hexahydro-8H-pyrazino[1′,2′:4,5]pyrazino[2,3-c]pyridazin-8-yl)piperidin-1-yl)ethyl ((S)-1-((2S,4R)-4-hydroxy-2-(((S)-1-(4-(4-methylthiazol-5-yl)phenyl)ethyl)carbamoyl)pyrrolidin-1-yl)-3,3-dimethyl-1-oxobutan-2-yl)carbamate] |  |  |  |  | < 100 nM | > 75%
8 | Cc1ncsc1-c1ccc([C@H](C)NC(=O)[C@@H]2C[C@@H](OC(=O)C(C)C)CN2C(=O)[C@@H](c2cc(OCCN3CCC(N4CCN5c6cc(-c7ccccc7O)nnc6NC[C@H]5C4)CC3)no2)C(C)C)cc1 [Example 81, (3R,5S)-1-((R)-2-(3-(2-(4-((S)-2-(2-hydroxyphenyl)-5,6,6a,7,9,10-hexahydro-8H-pyrazino[1′,2′:4,5]pyrazino[2,3-c]pyridazin-8-yl)piperidin-1-yl)ethoxy)isoxazol-5-yl)-3-methylbutanoyl)-5-(((S)-1-(4-(4-methylthiazol-5-yl)phenyl)ethyl)carbamoyl)pyrrolidin-3-yl isobutyrate] |  |  |  |  | < 100 nM | > 75%
9 | Cc1ncsc1-c1ccc([C@H](C)NC(=O)[C@@H]2C[C@@H](O)CN2C(=O)[C@@H](NC(=O)C2CN(CCCN3CCN4c5cc(-c6ccccc6O)nnc5NCC4C3)C2)C(C)(C)C)cc1 (stereo partly drawn) [Example 82, (2S,4R)-4-hydroxy-1-((2S)-2-(1-(3-(2-(2-hydroxyphenyl)-5,6,6a,7,9,10-hexahydro-8H-pyrazino[1′,2′:4,5]pyrazino[2,3-c]pyridazin-8-yl)propyl)azetidine-3-carboxamido)-3,3-dimethylbutanoyl)N-((S)-1-(4-(4-methylthiazol-5-yl)phenyl)ethyl)pyrrolidine-2-carboxamide] |  |  |  |  | < 100 nM | > 75%
10 | Cc1ncsc1-c1ccc([C@H](C)NC(=O)[C@@H]2C[C@@H](O)CN2C(=O)[C@@H](c2cc(OC3CCN(CCCN4CCN5c6cc(-c7ccccc7O)nnc6NC[C@H]5C4)C3)no2)C(C)C)cc1 (stereo partly drawn) [Example 83, (2S,4R)-4-hydroxy-1-((2R)-2-(3-((1-(3-((S)-2-(2-hydroxyphenyl)-5,6,6a,7,9,10-hexahydro-8H-pyrazino[1′,2′:4,5]pyrazino[2,3-c]pyridazin-8-yl)propyl)pyrrolidin-3-yl)oxy)isoxazol-5-yl)-3-methylbutanoyl)N-((S)-1-(4-(4-methylthiazol-5-yl)phenyl)ethyl)pyrrolidine-2-carboxamide] |  |  |  |  | < 100 nM | > 75%
11 | Cc1ncsc1-c1ccc([C@H](C)NC(=O)[C@@H]2C[C@@H](O)CN2C(=O)[C@@H](c2cc(OCCN3CCCC(CN4CCN5c6cc(-c7ccccc7O)nnc6NC[C@H]5C4)CC3)no2)C(C)C)cc1 (stereo partly drawn) [Example 84, (2S,4R)-4-hydroxy-1-((2R)-2-(3-(2-(4-(((S)-2-(2-hydroxyphenyl)-5,6,6a,7,9,10-hexahydro-8H-pyrazino[1′,2′:4,5]pyrazino[2,3-c]pyridazin-8-yl)methyl)azepan-1-yl)ethoxy)isoxazol-5-yl)-3-methylbutanoyl)-N-((S)-1-(4-(4-methylthiazol-5-yl)phenyl)ethyl)pyrrolidine-2-carboxamide] |  |  |  |  | < 100 nM | > 75%
12 | Cc1ncsc1-c1ccc([C@H](C)NC(=O)[C@@H]2C[C@@H](O)CN2C(=O)[C@@H](c2cc(OCCN3CCC(CN4CCN5c6cc(-c7ccccc7O)nnc6NC[C@H]5C4)C(C)(C)C3)no2)C(C)C)cc1 (stereo partly drawn) [Example 87, (2S,4R)-4-hydroxy-1-((2R)-2-(3-(2-(4-(((S)-2-(2-hydroxyphenyl)-5,6,6a,7,9,10-hexahydro-8H-pyrazino[1′,2′:4,5]pyrazino[2,3-c]pyridazin-8-yl)methyl)-3,3-dimethylpiperidin-1-yl)ethoxy)isoxazol-5-yl)-3-methylbutanoyl)-N-((S)-1-(4-(4-methylthiazol-5-yl)phenyl)ethyl)pyrrolidine-2-carboxamide] |  |  |  |  | < 100 nM | > 75%
13 | Cc1ncsc1-c1ccc([C@H](C)NC(=O)[C@@H]2C[C@@H](O)CN2C(=O)[C@@H](c2cc(CCN3CCC(N4CCN5c6cc(-c7ccccc7O)nnc6NC[C@H]5C4)CC3)no2)C(C)C)cc1 [Example 91, (2S,4R)-4-hydroxy-1-((R)-2-(3-(2-(4-((S)-2-(2-hydroxyphenyl)-5,6,6a,7,9,10-hexahydro-8H-pyrazino[1′,2′:4,5]pyrazino[2,3-c]pyridazin-8-yl)piperidin-1-yl)ethyl)isoxazol-5-yl)-3-methylbutanoyl)-N-((S)-1-(4-(4-methylthiazol-5-yl)phenyl)ethyl)pyrrolidine-2-carboxamide] |  |  |  |  | < 100 nM | > 75%
